The source of these data is ChEMBL document CHEMBL1201862, “PubChem BioAssay data set” (2004).

Among the test systems are A549; CAKI-1; DU-145; HL-60; HOP-62; KM12; LOX IMVI; MDA-MB-231; NCI-H226; NCI/ADR-RES; PC-3; RXF 393; SF-295; SK-MEL-28; SK-MEL-5; TK-10; U-251; ACHN; Malme-3M; SR.
Common to all, as to test: NCI anticancer screen, dose series, 48 h

Structures are written as SMILES.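 Results reflect a 48-hour exposure of cells in 96-well plates to compound at five concentrations. GI50: concentration for 50% inhibition of growth.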 Active and inactive are the calls of the source. Cut-off read from the data, not from the text of the source: active = GI50 up to about 1.1 µM and inactive = higher. Where only a bound is given, the exact number is not on record here.

On to `CCc1n[nH]c(=O)n1/N=C(\C)c1ccc([N+](=O)[O-])cc1`, for which the GI50 in the experiment on A549 was 86.7 µM (inactive); with CAKI-1, > 100 µM (inactive); in the experiment with DU-145, 27.5 µM (inactive); in the experiment on HL-60, > 100 µM (inactive); in the experiment with HOP-62, > 100 µM (inactive); in the experiment with KM12, > 100 µM (inactive). Besides, the GI50 is 49.4 µM (inactive) in the experiment on LOX IMVI; 19.7 µM (inactive) with MDA-MB-231; > 100 µM (inactive) with NCI-H226; > 100 µM (inactive) in the experiment with NCI/ADR-RES; > 100 µM (inactive) in the experiment on PC-3; 78.5 µM (inactive) in the experiment on RXF 393. Further, the GI50 in the experiment with SF-295, in the experiment with SK-MEL-28, in the experiment with SK-MEL-5, with TK-10 and in the experiment on U-251 was > 100 µM (inactive) throughout.

Turning to `COc1ccc(C2NC3=C(CCCC3)C3(C#N)C(=O)N=C(N)C23C#N)cc1` (stereo not drawn), the GI50 in the experiment on A549, in the experiment with ACHN, in the experiment with CAKI-1, with DU-145, in the experiment on HL-60 and with HOP-62 was > 100 µM (inactive) in each case. The GI50 in the experiment with KM12, in the experiment on LOX IMVI, in the experiment on MDA-MB-231, in the experiment with Malme-3M, in the experiment on NCI-H226 and with NCI/ADR-RES was > 100 µM (inactive) each time. The GI50 with PC-3, with RXF 393, in the experiment with SF-295, in the experiment with SK-MEL-28, in the experiment on SK-MEL-5 and in the experiment on TK-10 was > 100 µM (inactive) throughout. Moreover, in the experiment on U-251, the GI50 was > 100 µM (inactive).

On to `O=C(O)COc1c(Cl)cc(Cl)c(C(c2c(Cl)cc(Cl)c(OCC(=O)O)c2Cl)C(Cl)(Cl)Cl)c1Cl`, for which the GI50 is 30.1 µM (inactive) in the experiment on A549; 33.7 µM (inactive) in the experiment on ACHN; 33.7 µM (inactive) with CAKI-1; 38.3 µM (inactive) in the experiment with DU-145; 21.7 µM (inactive) in the experiment on HL-60; 0.398 µM (active) in the experiment with HOP-62. Besides, the GI50 in the experiment with KM12 is 40.1 µM (inactive); in the experiment with LOX IMVI it was 33.7 µM (inactive); in the experiment on MDA-MB-231, 24.9 µM (inactive); in the experiment on Malme-3M it was 28.7 µM (inactive); with NCI-H226 it was 21.4 µM (inactive); in the experiment on NCI/ADR-RES, 34 µM (inactive). In addition, the GI50 in the experiment on PC-3 is 38 µM (inactive); with RXF 393 it was 30.9 µM (inactive); in the experiment with SF-295, 25 µM (inactive); in the experiment with SK-MEL-28, 40.2 µM (inactive); in the experiment on SK-MEL-5, 18.5 µM (inactive); with TK-10, 31.9 µM (inactive). The GI50 in the experiment on U-251 is 26.7 µM (inactive).

Consider `O=C1NN(Cc2ccccc2)C(=O)N2CCC[C@@H]12`, for which the GI50 with A549, in the experiment with ACHN, in the experiment on CAKI-1, in the experiment on DU-145, in the experiment with HL-60 and in the experiment on HOP-62 was > 100 µM (inactive) throughout. In addition, the GI50 was > 100 µM (inactive) in the experiment with KM12; > 100 µM (inactive) with LOX IMVI; > 100 µM (inactive) in the experiment on MDA-MB-231; > 100 µM (inactive) with Malme-3M; 0.0505 µM (active) with NCI-H226; > 100 µM (inactive) in the experiment on NCI/ADR-RES. Further, the GI50 in the experiment on PC-3, with RXF 393, in the experiment on SF-295, in the experiment with SK-MEL-28, in the experiment with SK-MEL-5 and with TK-10 was > 100 µM (inactive) throughout.

In the case of `Sc1nnc(Cc2ccc(Cl)cc2)[nH]1`, the GI50 in the experiment on A549 is 44.1 µM (inactive); in the experiment with ACHN it was 45.3 µM (inactive); in the experiment with CAKI-1 it was 56.2 µM (inactive); in the experiment on DU-145, 67 µM (inactive); in the experiment on HOP-62, 93.1 µM (inactive); with KM12 it was 43.2 µM (inactive). The GI50 with LOX IMVI is 38.1 µM (inactive); in the experiment on MDA-MB-231, 42.3 µM (inactive); in the experiment with Malme-3M, 29.1 µM (inactive); in the experiment with NCI-H226, 65.5 µM (inactive); in the experiment with NCI/ADR-RES, 42.1 µM (inactive); in the experiment with PC-3 it was 49.1 µM (inactive). Further, the GI50 in the experiment on SF-295 is 43.7 µM (inactive); in the experiment on SK-MEL-28 it was > 100 µM (inactive); in the experiment with SK-MEL-5 it was 39.6 µM (inactive); in the experiment with SR, 58.6 µM (inactive); in the experiment on TK-10, 66.2 µM (inactive); in the experiment on U-251, 58.1 µM (inactive).

As to `CCOC(=O)/C=C/[C@@H](CC)O[Si](C(C)C)(C(C)C)C(C)C`, the GI50 with A549 is > 100 µM (inactive); with ACHN, > 100 µM (inactive); with CAKI-1 it was > 100 µM (inactive); with DU-145 it was > 100 µM (inactive); in the experiment on HOP-62, 67.6 µM (inactive); in the experiment on KM12 it was > 100 µM (inactive). Moreover, the GI50 in the experiment on LOX IMVI was > 100 µM (inactive); in the experiment with MDA-MB-231 it was > 100 µM (inactive); with Malme-3M, > 100 µM (inactive); in the experiment on NCI-H226, > 100 µM (inactive); in the experiment with NCI/ADR-RES it was > 100 µM (inactive); in the experiment with PC-3 it was 61.7 µM (inactive). Besides, the GI50 in the experiment with SF-295 was 48.4 µM (inactive); in the experiment with SK-MEL-5 it was > 100 µM (inactive); in the experiment with SR it was 74.6 µM (inactive); in the experiment on TK-10 it was > 100 µM (inactive); in the experiment on U-251, > 100 µM (inactive).

For `CC(=O)O[C@H]1CC[C@@]2(C)C(=CC[C@@H]3[C@@H]2CC[C@]2(C)C(=N/O)/C(=C/c4ccc([N+](=O)[O-])cc4)C[C@@H]32)C1`, the GI50 with A549 is 4.55 µM (inactive); with ACHN, 6.22 µM (inactive); in the experiment with CAKI-1, 1.39 µM (inactive); in the experiment on DU-145, 5.26 µM (inactive); in the experiment on HL-60 it was 2.33 µM (inactive); in the experiment with HOP-62 it was 17.3 µM (inactive). Further, the GI50 in the experiment on KM12 was 5.22 µM (inactive); in the experiment on LOX IMVI, 6.52 µM (inactive); in the experiment with MDA-MB-231, 8.89 µM (inactive); in the experiment on Malme-3M, 4.61 µM (inactive); with NCI-H226, 7.66 µM (inactive); in the experiment with NCI/ADR-RES, 6.84 µM (inactive). Moreover, the GI50 in the experiment on PC-3 was 2.72 µM (inactive); in the experiment on RXF 393, 32.4 µM (inactive); in the experiment on SF-295, 3.74 µM (inactive); in the experiment on SK-MEL-28, 11 µM (inactive); in the experiment with SK-MEL-5 it was 1.69 µM (inactive); in the experiment on TK-10, 8.43 µM (inactive).

`CCOC(=O)N1c2c(c3ccccc3n2C(=O)OCC)C(=O)C(OC)N1C(=O)OCC` (stereo not drawn): the GI50 in the experiment with A549 was 32.7 µM (inactive); in the experiment with ACHN, 25.6 µM (inactive); in the experiment with CAKI-1, 28.8 µM (inactive); in the experiment on DU-145, 61.9 µM (inactive); in the experiment with HL-60, 17.2 µM (inactive); in the experiment on HOP-62 it was 22 µM (inactive). In addition, the GI50 was 17.9 µM (inactive) in the experiment on KM12; 18.1 µM (inactive) with LOX IMVI; 22.9 µM (inactive) in the experiment on MDA-MB-231; 31.9 µM (inactive) with Malme-3M; 36.1 µM (inactive) with NCI-H226; 22.9 µM (inactive) in the experiment with NCI/ADR-RES. Moreover, the GI50 in the experiment on PC-3 is 21.6 µM (inactive); with SF-295, 19.6 µM (inactive); in the experiment on SK-MEL-28 it was 24.2 µM (inactive); with SK-MEL-5, 21.8 µM (inactive); with SR, 16.9 µM (inactive); with TK-10 it was 50.5 µM (inactive). Further, the GI50 in the experiment with U-251 is 27.1 µM (inactive).

Take `Cc1nc(N)c(N2CCN(S(=O)(=O)N(Cc3ccccc3)Cc3ccccc3)CC2)c(O)n1`: the GI50 in the experiment on A549 is 82.6 µM (inactive); with ACHN, 18.2 µM (inactive); with DU-145, 20.7 µM (inactive); in the experiment on HL-60, 57.7 µM (inactive); in the experiment with HOP-62, 31.6 µM (inactive); in the experiment with KM12, 56.9 µM (inactive). Further, the GI50 was > 100 µM (inactive) in the experiment with LOX IMVI; 62.4 µM (inactive) in the experiment with MDA-MB-231; 25.1 µM (inactive) in the experiment on Malme-3M; 30.1 µM (inactive) with NCI-H226; 71.3 µM (inactive) in the experiment on NCI/ADR-RES; 20.4 µM (inactive) in the experiment on PC-3. The GI50 in the experiment with SF-295 is 26.4 µM (inactive); in the experiment with SK-MEL-28, 17.6 µM (inactive); with SR, > 100 µM (inactive); in the experiment on TK-10, 26.5 µM (inactive); in the experiment with U-251, 16.9 µM (inactive).

`COc1ccc(CC2C3=C(CCCC3)CCN2C)cc1` (stereo not drawn): the GI50 is > 100 µM (inactive) with A549; > 100 µM (inactive) in the experiment with ACHN; > 100 µM (inactive) in the experiment on CAKI-1; > 100 µM (inactive) with DU-145; 29.4 µM (inactive) in the experiment on HL-60; > 100 µM (inactive) with HOP-62. Besides, the GI50 in the experiment on KM12, in the experiment on LOX IMVI, in the experiment with MDA-MB-231, in the experiment on Malme-3M, in the experiment with NCI-H226 and with NCI/ADR-RES was > 100 µM (inactive) throughout. The GI50 with PC-3, in the experiment on RXF 393, with SF-295, in the experiment on SK-MEL-28, with SK-MEL-5 and in the experiment with TK-10 was > 100 µM (inactive) in each case. The GI50 with U-251 is > 100 µM (inactive).

On to `CNc1nc2c(C)ccc3nc(N(C)C)nc-3c2n1C`, for which the GI50 in the experiment on A549, in the experiment on ACHN, in the experiment on CAKI-1, with DU-145, in the experiment on HOP-62 and with KM12 was > 10 µM (inactive) throughout. In addition, the GI50 in the experiment on MDA-MB-231, with Malme-3M, in the experiment with NCI-H226, in the experiment on NCI/ADR-RES, with PC-3 and in the experiment on RXF 393 was > 10 µM (inactive) each time. Further, the GI50 in the experiment on SF-295, in the experiment with SK-MEL-28, in the experiment with SK-MEL-5, with TK-10 and with U-251 was > 10 µM (inactive) in each case.
